Reference: US20020114868A1, “Highly soluble and stable nutritional compositions containing calcium and magnesium” (priority 1999, published 2002)
Where two headings read alike, the source gives them in different places. Marks after values point to notes of the source that are not given here.

Settings: 3.4 g calcium equivalent in 8 ounces deionized water at 68° F

## CC(O)C(=O)[O-].O=C([O-])[C@H](O)[C@@H](O)[C@H](O)[C@H](O)CO.[Ca+2] [Gluconal ®, Calcium Gluconate Lactate]
Elapsed time 00:00.0 mm:ss.s
  Dissolution Rates as % of Maximum Solubility: 0%
Elapsed time 00:05.4 mm:ss.s
  Dissolution Rates as % of Maximum Solubility: 10%
Elapsed time 00:10.7 mm:ss.s
  Dissolution Rates as % of Maximum Solubility: 20%
Elapsed time 00:16.1 mm:ss.s
  Dissolution Rates as % of Maximum Solubility: 30%
Elapsed time 00:21.5 mm:ss.s
  Dissolution Rates as % of Maximum Solubility: 50%
Elapsed time 00:26.9 mm:ss.s
  Dissolution Rates as % of Maximum Solubility: 55%
Elapsed time 00:32.2 mm:ss.s
  Dissolution Rates as % of Maximum Solubility: 45%
Elapsed time 00:37.6 mm:ss.s
  Dissolution Rates as % of Maximum Solubility: 58%
Elapsed time 00:43.0 mm:ss.s
  Dissolution Rates as % of Maximum Solubility: 63%
Elapsed time 00:48.4 mm:ss.s
  Dissolution Rates as % of Maximum Solubility: 66%
Elapsed time 00:53.7 mm:ss.s
  Dissolution Rates as % of Maximum Solubility: 71%
Elapsed time 00:59.1 mm:ss.s
  Dissolution Rates as % of Maximum Solubility: 71%
Elapsed time 01:04.5 mm:ss.s
  Dissolution Rates as % of Maximum Solubility: 77%
Elapsed time 01:09.9 mm:ss.s
  Dissolution Rates as % of Maximum Solubility: 77%
Elapsed time 01:15.3 mm:ss.s
  Dissolution Rates as % of Maximum Solubility: 80%
Elapsed time 01:20.6 mm:ss.s
  Dissolution Rates as % of Maximum Solubility: 83%
Elapsed time 01:36.7 mm:ss.s
  Dissolution Rates as % of Maximum Solubility: 85%
Elapsed time 01:47.5 mm:ss.s
  Dissolution Rates as % of Maximum Solubility: 85%
Elapsed time 01:58.2 mm:ss.s
  Dissolution Rates as % of Maximum Solubility: 86%
Elapsed time 02:09.0 mm:ss.s
  Dissolution Rates as % of Maximum Solubility: 88%
Elapsed time 03:00.0 mm:ss.s
  Dissolution Rates as % of Maximum Solubility: 98%
Elapsed time 03:30.5 mm:ss.s
  Dissolution Rates as % of Maximum Solubility: 94%
Elapsed time 04:00.0 mm:ss.s
  Dissolution Rates as % of Maximum Solubility: 99%
Elapsed time 05:00.0 mm:ss.s
  Dissolution Rates as % of Maximum Solubility: 99%
Elapsed time 06:00.0 mm:ss.s
  Dissolution Rates as % of Maximum Solubility: 99%
Elapsed time 07:00.0 mm:ss.s
  Dissolution Rates as % of Maximum Solubility: 99%***
Elapsed time 101:26.0 mm:ss.s
  Dissolution Rates as % of Maximum Solubility: 86%
